Results taken from ChEMBL document CHEMBL4376833, “Influence of Non-natural Cationic Amino Acids on the Biological Activity Profile of Innate Defense Regulator Peptides” (J Med Chem, 2019).
Active and inactive are the calls of the source. The rule behind the calls is not given here. Non-standard residues stand in square brackets, D forms with d. Residues, ends and D or L forms follow the SMILES beside them. hArg = N=C(N)NCCCC[C@H](N)C(=O)O; Agb = N=C(N)NCC[C@H](N)C(=O)O; Agp = N=C(N)NC[C@H](N)C(=O)O; Orn = NCCC[C@H](N)C(=O)O; Dab = NCC[C@H](N)C(=O)O; Dap = NC[C@H](N)C(=O)O

Legend:
[1] = test system: Staphylococcus aureus; test: Antibiofilm activity against methicillin-resistant Staphylococcus aureus assessed as inhibition of biofilm formation incubated for overnight by crystal violet staining based microtiter plate assay; assay type: functional, organism-based
[2] = test system: Staphylococcus aureus; test: Antibiofilm activity against methicillin-resistant Staphylococcus aureus assessed as inhibition of biofilm formation by measuring residual biofilm growth incubated for overnight at 10-fold dilution by crystal violet staining based microtiter plate assay relative to control; assay type: functional
[3] = test system: Staphylococcus aureus; test: Antibacterial activity against methicillin-resistant Staphylococcus aureus assessed as alteration in bacterial growth incubated for overnight by microtiter plate based spectrophotometric analysis; assay type: functional, organism-based

| Compound | inhibition [1] | residual biofilm growth (% of control) [2] [%] | Activity [3] |
| --- | --- | --- | --- |
| CC[C@H](C)[C@H](NC(=O)[C@H](CCCNC(=N)N)NC(=O)[C@@H](NC(=O)[C@H](C)NC(=O)[C@@H](NC(=O)[C@@H](NC(=O)[C@H](CC(C)C)NC(=O)[C@H](CCCNC(=N)N)NC(=O)[C@@H](N)C(C)C)[C@@H](C)CC)C(C)C)C(C)C)C(=O)N[C@@H](CCN)C(=O)N[C@@H](CCCNC(=N)N)C(=O)N[C@@H](CCCNC(=N)N)C(N)=O (H-VRLIVAVRI[Dab]RR-NH2) | Dose-dependent effect | 90.8 | Active |
| CC[C@H](C)[C@H](NC(=O)[C@H](CC(C)C)NC(=O)[C@H](CCCNC(=N)N)NC(=O)[C@@H](N)C(C)C)C(=O)N[C@H](C(=O)N[C@@H](C)C(=O)N[C@H](C(=O)N[C@@H](CCCNC(=N)N)C(=O)N[C@@H](CCN)C(=O)N[C@@H](Cc1c[nH]c2ccccc12)C(=O)N[C@@H](CCCNC(=N)N)C(=O)N[C@@H](CCCNC(=N)N)C(N)=O)C(C)C)C(C)C (H-VRLIVAVR[Dab]WRR-NH2) | Dose-dependent effect | 102 | Active |
| CC[C@H](C)[C@H](NC(=O)[C@H](CCCNC(=N)N)NC(=O)[C@@H](NC(=O)[C@H](C)NC(=O)[C@@H](NC(=O)[C@@H](NC(=O)[C@H](CC(C)C)NC(=O)[C@H](CCCNC(=N)N)NC(=O)[C@@H](N)C(C)C)[C@@H](C)CC)C(C)C)C(C)C)C(=O)N[C@@H](CN)C(=O)N[C@@H](CCCNC(=N)N)C(=O)N[C@@H](CCCNC(=N)N)C(N)=O (H-VRLIVAVRI[Dap]RR-NH2) | Dose-dependent effect | 15 | Active |
| CC[C@H](C)[C@H](NC(=O)[C@H](CCCNC(=N)N)NC(=O)[C@@H](NC(=O)[C@H](C)NC(=O)[C@@H](NC(=O)[C@@H](NC(=O)[C@H](CC(C)C)NC(=O)[C@H](CCCNC(=N)N)NC(=O)[C@@H](N)CCCN)[C@@H](C)CC)C(C)C)C(C)C)C(=O)N[C@@H](Cc1c[nH]c2ccccc12)C(=O)N[C@@H](CCCNC(=N)N)C(=O)N[C@@H](CCCNC(=N)N)C(N)=O (H-[Orn]RLIVAVRIWRR-NH2) | Dose-dependent effect | 12.2 | Active |
| CC[C@H](C)[C@H](NC(=O)[C@H](CCCNC(=N)N)NC(=O)[C@@H](NC(=O)[C@H](C)NC(=O)[C@@H](NC(=O)[C@@H](NC(=O)[C@H](CC(C)C)NC(=O)[C@H](CN)NC(=O)[C@@H](N)C(C)C)[C@@H](C)CC)C(C)C)C(C)C)C(=O)N[C@@H](Cc1c[nH]c2ccccc12)C(=O)N[C@@H](CCCNC(=N)N)C(=O)N[C@@H](CCCNC(=N)N)C(N)=O (H-V[Dap]LIVAVRIWRR-NH2) | Dose-dependent effect | 19.1 | Active |
| CC[C@H](C)[C@H](NC(=O)[C@H](CCCNC(=N)N)NC(=O)[C@@H](NC(=O)[C@H](C)NC(=O)[C@@H](NC(=O)[C@@H](NC(=O)[C@H](CCNC(=N)N)NC(=O)[C@H](CCCNC(=N)N)NC(=O)[C@@H](N)C(C)C)[C@@H](C)CC)C(C)C)C(C)C)C(=O)N[C@@H](Cc1c[nH]c2ccccc12)C(=O)N[C@@H](CCCNC(=N)N)C(=O)N[C@@H](CCCNC(=N)N)C(N)=O (H-VR[Agb]IVAVRIWRR-NH2) | Dose-dependent effect | 99.8 | Active |
| CC[C@H](C)[C@H](NC(=O)[C@H](CN)NC(=O)[C@@H](NC(=O)[C@H](C)NC(=O)[C@@H](NC(=O)[C@@H](NC(=O)[C@H](CC(C)C)NC(=O)[C@H](CCCNC(=N)N)NC(=O)[C@@H](N)C(C)C)[C@@H](C)CC)C(C)C)C(C)C)C(=O)N[C@@H](Cc1c[nH]c2ccccc12)C(=O)N[C@@H](CCCNC(=N)N)C(=O)N[C@@H](CCCNC(=N)N)C(N)=O (H-VRLIVAV[Dap]IWRR-NH2) | Dose-dependent effect | 26.8 | Active |
| CC[C@H](C)[C@H](NC(=O)[C@H](CC(C)C)NC(=O)[C@H](CCCNC(=N)N)NC(=O)[C@@H](N)C(C)C)C(=O)N[C@@H](CCN)C(=O)N[C@@H](C)C(=O)N[C@H](C(=O)N[C@@H](CCCNC(=N)N)C(=O)N[C@H](C(=O)N[C@@H](Cc1c[nH]c2ccccc12)C(=O)N[C@@H](CCCNC(=N)N)C(=O)N[C@@H](CCCNC(=N)N)C(N)=O)[C@@H](C)CC)C(C)C (H-VRLI[Dab]AVRIWRR-NH2) | Dose-dependent effect | 102.7 | Active |
| CC[C@H](C)[C@H](NC(=O)[C@H](CCCNC(=N)N)NC(=O)[C@@H](NC(=O)[C@H](C)NC(=O)[C@@H](NC(=O)[C@@H](NC(=O)[C@H](CNC(=N)N)NC(=O)[C@H](CCCNC(=N)N)NC(=O)[C@@H](N)C(C)C)[C@@H](C)CC)C(C)C)C(C)C)C(=O)N[C@@H](Cc1c[nH]c2ccccc12)C(=O)N[C@@H](CCCNC(=N)N)C(=O)N[C@@H](CCCNC(=N)N)C(N)=O (H-VR[Agp]IVAVRIWRR-NH2) | Dose-dependent effect | 102.2 | Active |
| H-VRLKVAVRIWRR-NH2 | Dose-dependent effect | 10.7 | Active |
| CC[C@H](C)[C@H](NC(=O)[C@H](CC(C)C)NC(=O)[C@H](CCCNC(=N)N)NC(=O)[C@@H](N)C(C)C)C(=O)N[C@@H](CN)C(=O)N[C@@H](C)C(=O)N[C@H](C(=O)N[C@@H](CCCNC(=N)N)C(=O)N[C@H](C(=O)N[C@@H](Cc1c[nH]c2ccccc12)C(=O)N[C@@H](CCCNC(=N)N)C(=O)N[C@@H](CCCNC(=N)N)C(N)=O)[C@@H](C)CC)C(C)C (H-VRLI[Dap]AVRIWRR-NH2) | Dose-dependent effect | 92 | Active |
| CC[C@H](C)[C@H](NC(=O)[C@H](CCCNC(=N)N)NC(=O)[C@@H](NC(=O)[C@H](C)NC(=O)[C@@H](NC(=O)[C@H](CCCCNC(=N)N)NC(=O)[C@H](CC(C)C)NC(=O)[C@H](CCCNC(=N)N)NC(=O)[C@@H](N)C(C)C)C(C)C)C(C)C)C(=O)N[C@@H](Cc1c[nH]c2ccccc12)C(=O)N[C@@H](CCCNC(=N)N)C(=O)N[C@@H](CCCNC(=N)N)C(N)=O (H-VRL[hArg]VAVRIWRR-NH2) | Dose-dependent effect | 107.6 | Active |
| H-VRLIVAVRIWRK-NH2 | Dose-dependent effect | 6 | Active |
| H-VRRIVAVRIWRR-NH2 | Dose-dependent effect | 83.7 | Active |
| CC[C@H](C)[C@H](NC(=O)[C@H](CCCCNC(=N)N)NC(=O)[C@@H](NC(=O)[C@H](C)NC(=O)[C@@H](NC(=O)[C@@H](NC(=O)[C@H](CC(C)C)NC(=O)[C@H](CCCNC(=N)N)NC(=O)[C@@H](N)C(C)C)[C@@H](C)CC)C(C)C)C(C)C)C(=O)N[C@@H](Cc1c[nH]c2ccccc12)C(=O)N[C@@H](CCCNC(=N)N)C(=O)N[C@@H](CCCNC(=N)N)C(N)=O (H-VRLIVAV[hArg]IWRR-NH2) | Dose-dependent effect | 26.3 | Active |
